Data from PMC10712727, “Safety, Tolerability, and Pharmacokinetics of Senaparib, a Novel PARP1/2 Inhibitor, in Chinese Patients With Advanced Solid Tumors: A Phase I Trial” (The Oncologist, 2023).

Tested on: patients with advanced solid tumors
Assay: Safety: treatment-emergent and senaparib-related adverse events graded per NCI CTCAE v4.03
Type: in vivo
Experimental: This phase I, open-label, multicenter, dose-escalation, and dose-expansion study was conducted at three national clinical institutions in China. […] At baseline, all patients enrolled in the dose-escalation phase had to have at least one evaluable lesion, and those in the dose-expansion period had to have at least one measurable lesion, according to Response Evaluation Criteria in Solid Tumors version 1.1 (RECIST v1.1).[16] Entry to the dose-expansion cohort required the presence of a BRCA mutation, with the exception of patients with ovarian carcinoma, fallopian tube carcinoma, and primary peritoneal carcinoma. Full study eligibility criteria are provided in Supplementary Table S1.
Dose escalation was conducted using a modified Fibonacci 3 + 3 method (Supplementary Fig. S1).[17] Patients were administered oral senaparib from a planned starting dose of 2 mg once daily (QD), with preliminary dose escalation to 120 mg via nine dose groups, in order of their entry into the study. At a given dose level, each patient received a single dose of senaparib followed by a 7-day washout period. They then entered a continuous dosing period to confirm the safety and PK profile, in which they received senaparib QD from day 1 to day 21 of each 3-week cycle. Progression to the next higher dose required approval from the Data Safety Monitoring Committee (DSMC) upon review of the safety and PK data of the previous dose. A 50-mg twice-daily (BID) dosing group was added (planned enrollment, n = 6 patients) based on a DSMC review of the safety, PK, and efficacy analysis of the completed QD dose groups in the phase I clinical trial of senaparib dose escalation in Australia (NCT03507543), which commenced prior to the start of this trial.
The dose-expansion period included 3 populations: dose groups in which at least one patient achieved complete response (CR) or partial response (PR) per RECIST v1.1[16] and 1 dose group higher (evaluated for safety), as well as the dose group at the maximum tolerated dose (MTD)/recommended phase II dose (RP2D). Each of these groups included those patients in the respective dose-escalation group plus a planned additional 10 patients (approximately 20 patients in the MTD/RP2D group) with BRCA^mut+ solid tumors (ovarian, breast, or prostate cancer were preferred, and ovarian cancer could be BRCA wild type). Patients received senaparib monotherapy orally QD or BID (50-mg dose only) over each 3-week cycle until disease progression or unacceptable toxicity.
DLTs were predefined toxicities (Supplementary Table S2) recorded over the 7 days following the single-dose administration of senaparib and during the first treatment cycle (day 1-day 21) for each dose group in the dose-escalation period only. The MTD was defined as the maximum dose at which ≤1/6 patients experienced a DLT. Senaparib PK parameters were derived from blood samples collected from patients after the single administration, and at regular intervals during the first cycle of the dose-escalation and dose-expansion periods. Plasma concentrations of senaparib were determined using high-performance liquid chromatography-tandem mass spectrometry. Tumor response was assessed every 6 weeks per RECIST v1.1,[16] recording objective response rate (ORR), disease control rate (DCR), duration of response (DOR), and progression-free survival (PFS) by dose level for all patients and for those harboring BRCA^mut+ tumors.

O=C(c1cc(Cn2c(=O)[nH]c(=O)c3c(F)cccc32)ccc1F)N1CCN(c2ncccn2)CC1 [Senaparib]
2 (66.7) n (%): Anemia TRAE, All (5 mg QD n = 3)
0 n ev: TEAEs leading to death, events (2 mg QD n = 1) | TEAEs leading to dose discontinuation, events (2 mg QD n = 1) | TEAEs leading to dose interruption, events (2 mg QD n = 1) | TEAEs leading to dose reduction, events (2 mg QD n = 1) | TRAEs Grade ≥3, events (2 mg QD n = 1) | SAEs, events (5 mg QD n = 3) | TEAEs leading to death, events (5 mg QD n = 3) | TEAEs leading to dose discontinuation, events (5 mg QD n = 3) | TEAEs leading to dose interruption, events (5 mg QD n = 3) | TEAEs leading to dose reduction, events (5 mg QD n = 3)
1 (33.3) n (%): Anemia TRAE, Gr≥3 (5 mg QD n = 3) | Any TRAE, Gr≥3 (5 mg QD n = 3) | Appetite decreased TRAE, All (5 mg QD n = 3) | Asthenia TRAE, All (5 mg QD n = 3) | Blood bilirubin increased TRAE, All (5 mg QD n = 3) | Nausea TRAE, All (5 mg QD n = 3) | Neutrophil count decreased TRAE, All (5 mg QD n = 3) | Platelet count decreased TRAE, All (5 mg QD n = 3) | TRAEs Grade ≥3, patients (5 mg QD n = 3) | WBC decreased TRAE, All (5 mg QD n = 3) | ALT increased TRAE, All (10 mg QD n = 3) | AST increased TRAE, All (10 mg QD n = 3) | Anemia TRAE, All (10 mg QD n = 3) | Appetite decreased TRAE, All (10 mg QD n = 3)
0 n (%): ALT increased TRAE, All (2 mg QD n = 1) | ALT increased TRAE, Gr≥3 (2 mg QD n = 1) | AST increased TRAE, All (2 mg QD n = 1) | AST increased TRAE, Gr≥3 (2 mg QD n = 1) | Anemia TRAE, All (2 mg QD n = 1) | Anemia TRAE, Gr≥3 (2 mg QD n = 1) | Any TRAE, Gr≥3 (2 mg QD n = 1) | Appetite decreased TRAE, Gr≥3 (2 mg QD n = 1) | Asthenia TRAE, All (2 mg QD n = 1) | Asthenia TRAE, Gr≥3 (2 mg QD n = 1) | Blood bilirubin increased TRAE, All (2 mg QD n = 1) | Blood bilirubin increased TRAE, Gr≥3 (2 mg QD n = 1) | Blood creatinine increased TRAE, All (2 mg QD n = 1) | Blood creatinine increased TRAE, Gr≥3 (2 mg QD n = 1) | Hypokalemia TRAE, Gr≥3 (2 mg QD n = 1) | Nausea TRAE, All (2 mg QD n = 1) | Nausea TRAE, Gr≥3 (2 mg QD n = 1) | Neutrophil count decreased TRAE, All (2 mg QD n = 1) | Neutrophil count decreased TRAE, Gr≥3 (2 mg QD n = 1) | Platelet count decreased TRAE, All (2 mg QD n = 1) | Platelet count decreased TRAE, Gr≥3 (2 mg QD n = 1) | TEAEs leading to death, patients (2 mg QD n = 1) | TEAEs leading to dose discontinuation, patients (2 mg QD n = 1) | TEAEs leading to dose interruption, patients (2 mg QD n = 1) | TEAEs leading to dose reduction, patients (2 mg QD n = 1) | TRAEs Grade ≥3, patients (2 mg QD n = 1) | Vomiting TRAE, All (2 mg QD n = 1) | Vomiting TRAE, Gr≥3 (2 mg QD n = 1) | WBC decreased TRAE, All (2 mg QD n = 1) | WBC decreased TRAE, Gr≥3 (2 mg QD n = 1) | ALT increased TRAE, All (5 mg QD n = 3) | ALT increased TRAE, Gr≥3 (5 mg QD n = 3) | AST increased TRAE, All (5 mg QD n = 3) | AST increased TRAE, Gr≥3 (5 mg QD n = 3) | Appetite decreased TRAE, Gr≥3 (5 mg QD n = 3) | Asthenia TRAE, Gr≥3 (5 mg QD n = 3) | Blood bilirubin increased TRAE, Gr≥3 (5 mg QD n = 3) | Blood creatinine increased TRAE, All (5 mg QD n = 3) | Blood creatinine increased TRAE, Gr≥3 (5 mg QD n = 3) | Hypokalemia TRAE, All (5 mg QD n = 3) | Hypokalemia TRAE, Gr≥3 (5 mg QD n = 3) | Nausea TRAE, Gr≥3 (5 mg QD n = 3) | Neutrophil count decreased TRAE, Gr≥3 (5 mg QD n = 3) | Platelet count decreased TRAE, Gr≥3 (5 mg QD n = 3) | SAEs, patients (5 mg QD n = 3) | TEAEs leading to death, patients (5 mg QD n = 3) | TEAEs leading to dose discontinuation, patients (5 mg QD n = 3) | TEAEs leading to dose interruption, patients (5 mg QD n = 3) | TEAEs leading to dose reduction, patients (5 mg QD n = 3) | Vomiting TRAE, All (5 mg QD n = 3) | Vomiting TRAE, Gr≥3 (5 mg QD n = 3) | WBC decreased TRAE, Gr≥3 (5 mg QD n = 3) | ALT increased TRAE, Gr≥3 (10 mg QD n = 3) | AST increased TRAE, Gr≥3 (10 mg QD n = 3) | Anemia TRAE, Gr≥3 (10 mg QD n = 3) | Any TEAE, Gr≥3 (10 mg QD n = 3) | Any TRAE, Gr≥3 (10 mg QD n = 3) | Appetite decreased TRAE, Gr≥3 (10 mg QD n = 3) | Asthenia TRAE, All (10 mg QD n = 3) | Asthenia TRAE, Gr≥3 (10 mg QD n = 3) | Blood bilirubin increased TRAE, All (10 mg QD n = 3) | Blood bilirubin increased TRAE, Gr≥3 (10 mg QD n = 3) | Blood creatinine increased TRAE, All (10 mg QD n = 3)
6 n ev: TRAEs, events (2 mg QD n = 1)
28 n ev: Any TEAE, events (5 mg QD n = 3)
10 n ev: Any TEAE, events (10 mg QD n = 3)
9 n ev: Any TEAE, events (2 mg QD n = 1)
13 n ev: TRAEs, events (5 mg QD n = 3)
1 (100) n (%): Any TEAE, All (2 mg QD n = 1) | Any TEAE, Gr≥3 (2 mg QD n = 1) | Any TEAE, patients (2 mg QD n = 1) | Any TRAE, All (2 mg QD n = 1) | Appetite decreased TRAE, All (2 mg QD n = 1) | Hypokalemia TRAE, All (2 mg QD n = 1) | SAEs, patients (2 mg QD n = 1) | TEAE Grade ≥3, patients (2 mg QD n = 1) | TRAEs, patients (2 mg QD n = 1)
1 n ev: SAEs, events (2 mg QD n = 1) | TEAE Grade ≥3, events (2 mg QD n = 1) | TRAEs Grade ≥3, events (5 mg QD n = 3)
5 n ev: TEAE Grade ≥3, events (5 mg QD n = 3)
3 (100) n (%): Any TEAE, All (5 mg QD n = 3) | Any TEAE, Gr≥3 (5 mg QD n = 3) | Any TEAE, patients (5 mg QD n = 3) | Any TRAE, All (5 mg QD n = 3) | TEAE Grade ≥3, patients (5 mg QD n = 3) | TRAEs, patients (5 mg QD n = 3) | Any TEAE, All (10 mg QD n = 3) | Any TEAE, patients (10 mg QD n = 3) | Any TRAE, All (10 mg QD n = 3)
